Test results: patent US20150141381A1, “TETRACYCLINE COMPOUNDS HAVING TARGET THERAPEUTIC ACTIVITIES” (Paratek Pharmaceuticals, Inc., priority 2001, published 2015)

How the values were obtained:
S. aureus RN450 = test: In Vitro Anti-Bacterial Activity Assay (MIC), gram positive; format: cell-based; details: Staphylococcus aureus, RN450, 18 h, MIC class, Table 3; read-out: Antibiotic Activity Gram +
E. coli mL308 225 = test: In Vitro Anti-Bacterial Activity Assay (MIC), gram negative; format: cell-based; details: Escherichia coli, ML308225, 18 h, MIC class, Table 3; read-out: Antibiotic Activity Gram −

Compound	MIC (S. aureus RN450) [µg/mL]	MIC (E. coli mL308 225) [µg/mL]
CN(C)c1ccc2c(c1O)C(=O)C1=C(O)[C@]3(O)C(=O)C(C(N)=O)=C(O)[C@@H](N(C)C)[C@@H]3C[C@@H]1C2 [JX]	< 4	> 4
COc1ccc(-c2ccc(O)c3c2C[C@H]2C[C@H]4[C@H](N(C)C)C(O)=C(C(N)=O)C(=O)[C@@]4(O)C(O)=C2C3=O)cc1CN1CCN(C)CC1 [JY]	< 4	> 4
CN(C)[C@@H]1C(O)=C(C(N)=O)C(=O)[C@@]2(O)C(O)=C3C(=O)c4c(O)ccc(-c5ccc(CN6CCCC6)cc5)c4C[C@H]3C[C@@H]12 [JZ]	< 4	< 4
CCN(CC)Cc1ccc(OC)c(-c2ccc(O)c3c2C[C@H]2C[C@H]4[C@@H](N(C)C)C(O)=C(C(N)=O)C(=O)[C@@]4(O)C(O)=C2C3=O)c1 [J]	< 4	< 4
COc1ccc(-c2ccc(O)c3c2C[C@H]2C[C@H]4[C@H](N(C)C)C(O)=C(C(N)=O)C(=O)[C@@]4(O)C(O)=C2C3=O)cc1CN1CCN(CCO)CC1 [KA]	< 4	> 4
COc1ccc(NC(=O)Nc2cc(N(C)C)c3c(c2O)C(=O)C2=C(O)[C@]4(O)C(=O)C(C(N)=O)=C(O)[C@@H](N(C)C)[C@@H]4C[C@@H]2C3)cc1 [KB]	< 4	> 4
CN(C)[C@@H]1C(O)=C(C(N)=O)C(=O)[C@@]2(O)C(O)=C3C(=O)c4c(O)ccc(CN(CC5CC5)CC5CC5)c4C[C@H]3C[C@@H]12 [KC]	< 4	< 4
COC(CN(Cc1ccc(O)c2c1C[C@H]1C[C@H]3[C@@H](N(C)C)C(O)=C(C(N)=O)C(=O)[C@@]3(O)C(O)=C1C2=O)CC(OC)OC)OC [KD]	< 4	> 4
CCC(C)CNCc1ccc(O)c2c1C[C@H]1C[C@H]3[C@H](N(C)C)C(O)=C(C(N)=O)C(=O)[C@@]3(O)C(O)=C1C2=O (some centres unmarked) [KE]	< 4	< 4
CN(C)[C@@H]1C(O)=C(C(N)=O)C(=O)[C@@]2(O)C(O)=C3C(=O)c4c(O)ccc(CNCc5cccn5C)c4C[C@H]3C[C@@H]12 [KG]	< 4	< 4
CN(C)[C@@H]1C(O)=C(C(N)=O)C(=O)[C@@]2(O)C(O)=C3C(=O)c4c(O)ccc(CNCc5ccc[nH]5)c4C[C@H]3C[C@@H]12 [KH]	< 4	< 4
CCN(CC)Cc1ccc(O)c2c1C[C@H]1C[C@H]3[C@@H](N(C)C)C(O)=C(C(N)=O)C(=O)[C@@]3(O)C(O)=C1C2=O [KI]	< 4	< 4
CN(C)[C@@H]1C(O)=C(C(N)=O)C(=O)[C@@]2(O)C(O)=C3C(=O)c4c(O)ccc(CN5CCCCC5)c4C[C@H]3C[C@@H]12 [KJ]	< 4	< 4
CC(C)NCc1ccc(O)c2c1C[C@H]1C[C@H]3C(N(C)C)C(O)=C(C(N)=O)C(=O)[C@@]3(O)C(O)=C1C2=O (some centres unmarked) [KK]	< 4	< 4
CN(C)c1cc(NC2CCN(Cc3ccccc3)CC2)c(O)c2c1C[C@H]1C[C@H]3[C@H](N(C)C)C(O)=C(C(N)=O)C(=O)[C@@]3(O)C(O)=C1C2=O [KM]	> 4	> 4
CNCC#Cc1ccc(O)c2c1C[C@H]1C[C@H]3[C@H](N(C)C)C(O)=C(C(N)=O)C(=O)[C@@]3(O)C(O)=C1C2=O [KR]	< 4	< 4
CN(C)[C@@H]1C(O)=C(C(N)=O)C(=O)[C@@]2(O)C(O)=C3C(=O)c4c(O)c(N)cc(-c5ccoc5)c4C[C@H]3C[C@@H]12 [KT]	< 4	< 4
CN(C)c1cc(-c2ccoc2)c(O)c2c1C[C@H]1C[C@H]3[C@H](N(C)C)C(O)=C(C(N)=O)C(=O)[C@@]3(O)C(O)=C1C2=O [KU]	< 4	> 4
CCCN1CCC(Nc2ccc3c(c2O)C(=O)C2=C(O)[C@]4(O)C(=O)C(C(N)=O)=C(O)[C@@H](N(C)C)[C@@H]4[C@@H](O)[C@@H]2[C@H]3C)CC1 [KX]	< 4	< 4
